{"source": "patent US20220257722A1", "about": "“COMPOSITIONS AND METHODS OF TREATING AND PREVENTING SYSTEMIC COMPLICATIONS OF ACUTE ILLNESS” (United States Government As Represented By The Department …, priority 2019, published 2022)", "key": {"rat small intestine": {"system": "rat small intestine", "test": "LPS-induced small intestinal FD4 paracellular permeability in vivo (PV and arterial FD4)", "settings": "for TDG-induced inhibitory effect on PV FD4 levels: LPS 6 hr + TDG 6 hr; for TDG-induced inhibitory effect on PV FD4 levels / Arterial FD4 levels in LPS 6 hr + TDG 6 hr rats: inhibitor iv at t=-10 min or co-perfused; for Arterial FD4 levels in LPS 6 hr + TDG 6 hr rats: t=90 min", "description": "LPS treatment. Animals were treated with LPS (5 mg/kg, ip) once at 9 am. For the acute experiments, the animals were fasted overnight and were treated with LPS 1, 3, or 6 hr before the anesthesia for small intestinal perfusion of FD4 as described herein. For the 24-hr experiments, the animals fed ad libitum were treated with LPS 24 hr before anesthesia induction used for the perfusion study. As a control, saline was injected ip at the corresponding time before the experiments. The animal groups were expressed as control, LPS 1 hr, LPS 3 hr, LPS 6 hr, and LPS 24 hr.\nSmall intestinal perfusion. The small intestinal perfusion from the duodenum, and portal vein (PV) cannulation were prepared by the modified methods. Under isoflurane anesthesia (2%), the animal was placed […] on a recirculating heating block system (Summit Medical Systems, Bend, Oreg., USA) in order to maintain body temperature at 36-37° C. Prewarmed saline was infused via the right femoral vein at 1.08 ml/h using a Harvard infusion pump (Harvard Apparatus, Holliston, Mass., USA). The abdomen was incised, and the PV was cannulated with a polyethylene (PE)-50 tube attached with 23G needle and fixed by methylacrylate adhesive at the insertion site. The tube was filled with heparinized saline enabling repeated blood sampling. Samples of 0.2 ml PV blood were collected every 15 min, followed by flushing with 0.2 ml heparinized saline. A polyethylene tube (diameter 5 mm) filled with PBS was inserted through the forestomach and tied at 0.5 cm caudal from the pyloric ring. After bolus perfusion of 2-ml phosphate buffer saline (PBS, 10 mM, pH 7.4) into the duodenum from the tube, followed by stabilization for ˜30 min, the time was set as t=0. FD4 (0.1 mM) in 10-ml PBS was slowly perfused at t=0 min for 30 sec. Blood samples were collected into a 0.5-ml tubes containing 1-μl each of EDTA (0.5 M) and the dipeptidyl peptidase-4 (DPP4) inhibitor NVP-728 (1 mM), and immediately centrifuged at 5,000× g for 5 min, after which the plasma was stored on ice or at −80 ° C. until use. At 90 min, after collection of PV samples, arterial blood was taken from abdominal aorta, followed by euthanasia by thoracotomy.\nAppearance of FD4 into the PV and arterial plasma was assessed by fluorescence intensity measurement using a multi-mode microplate reader (Synergy-2, BioTek Instruments, Inc., Winooski, VT, USA). Fluorescence intensity in t=0 sample as background was subtracted from the fluorescence values measured in other time point samples. FD4 content was calculated according to the standard curve generated each time of measurement.\nDrug treatment for the intestinal perfusion study. The following drugs were administered at the time after LPS treatment: the GLP2R partial agonist/antagonist GLP-2(3-33) (1 mg/kg; 280 nmol/kg, ip) was given immediately after LPS treatment (0 hr after LPS treatment); GLP-2 (380 μg/kg; 100 nmol/kg, ip) was given 6 hr after LPS treatment; a stable GLP-2 analog TDG (50 μg/kg; 13.3 nmol/kg) was ip injected 0, 3, 6, or 12 hr after LPS treatment or iv injected at t=0 min just before the perfusion of FD4 solution (6 or 24 hr after LPS treatment). In acute experiments, TDG was iv injected at t=0 min (6 hr after LPS treatment) with or without the pretreatment of the selective IGF1 receptor (IGF1R) tyrosine kinase inhibitor AEW541 (0.1 mg/kg, iv), the selective EGF receptor (EGFR) tyrosine kinase inhibitor PD153035 (10 μg/kg, iv) or PG97-269 (1 mg/kg, iv) at t=−10 min, or the co-perfusion of L-NAME (0.1 mM, pf) with FD4 solution."}, "rat jejunal mucosa": {"system": "rat jejunal mucosa", "test": "LPS mucosal-to-serosal transport in rat jejunal mucosa read by TLR4 reporter cell assay", "assay_type": "cell-based", "settings": "same samples as FITC measurement; SSO 0.1 mM or MβCD 1 mM", "description": "TLR-4 reporter cell assay. Since the LAL test may overestimate LPS levels due to nonspecific detection of […] (66), and FITC-LPS method measures LPS fluorescence without regard to the functional activity of LPS, experiments were carried out to determine whether the samples contained intact, functional LPS that is a preferential TLR-4 ligand. In order to confirm that intact LPS was measured in the samples used for measurements in the Ussing chamber study, a TLR4 reporter cell assay was used that consists of HEK293 cells co-transfected with murine TLR4, myeloid differentiation 2 and CD14 co-receptor genes and an inducible secreted embryonic alkaline phosphatase (SEAP) reporter gene with nuclear factor-kappa B (NF-kB) and activator protein 1 (AP-1) binding motifs (HEK-Blue mTLR-4, InvivoGen, San Diego, Calif.). Cells were harvested in a 96-well plate with standards and samples for 24 hr. The presence of LPS was detected as induced SEAP activity in the medium using HEK-Blue Detection (InvivoGen) by measuring absorbance at 655 nm with Synergy-2 24 hrs after the addition of standards and samples, according to the manufacturer's protocol. Ultrapure LPS from E. coli 055:B5 (LPS-B5 Ultrapure, InvivoGen) was used as standard at a range of 0.01-100 ng/ml."}}}
{"compound": "COC(=O)[C@@H](N)CCCNC(=N)N[N+](=O)[O-]", "note": "[L-NAME, Nω-nitro-L-arginine methyl ester]", "values": [{"measurement": "LPS-induced increases in PV FD4 levels at 6 hr", "setting": "rat small intestine; L-NAME 0.1 mM alone co-perfused with FD4, no TDG", "value": "no effect"}, {"measurement": "TDG-induced inhibitory effect on PV FD4 levels", "setting": "rat small intestine", "value": "reversed"}, {"measurement": "Arterial FD4 levels in LPS 6 hr + TDG 6 hr rats", "setting": "rat small intestine", "value": "reduced"}]}
{"compound": "CCCCCCCC/C=C\\CCCCCCCC(=O)ON1C(=O)CC(S(=O)(=O)O)C1=O", "note": "(centres unmarked) [SSO, sulfosuccinimidyl oleate]", "values": [{"measurement": "LPS m-to-s transport during OA/TCA exposure by TLR4 reporter cell assay", "setting": "rat jejunal mucosa", "value": "abolished"}]}
{"compound": "CC[C@H](C)[C@H](NC(=O)[C@H](Cc1ccccc1)NC(=O)[C@H](CC(=O)O)NC(=O)[C@H](CCCNC(=N)N)NC(=O)[C@H](C)NC(=O)[C@H](C)NC(=O)[C@H](CC(C)C)NC(=O)[C@H](CC(N)=O)NC(=O)[C@H](CC(=O)O)NC(=O)[C@H](CC(C)C)NC(=O)[C@@H](NC(=O)[C@@H](NC(=O)[C@H](CC(N)=O)NC(=O)[C@H](CCSC)NC(=O)[C@H](CCC(=O)O)NC(=O)[C@H](CC(=O)O)NC(=O)[C@H](CO)NC(=O)[C@H](Cc1ccccc1)NC(=O)[C@H](CO)NC(=O)CNC(=O)[C@H](CC(=O)O)NC(=O)CNC(=O)[C@@H](N)Cc1c[nH]cn1)[C@@H](C)O)[C@@H](C)CC)C(=O)N[C@@H](CC(N)=O)C(=O)N[C@@H](Cc1c[nH]c2ccccc12)C(=O)N[C@@H](CC(C)C)C(=O)N[C@H](C(=O)N[C@@H](CCC(N)=O)C(=O)N[C@H](C(=O)N[C@@H](CCCCN)C(=O)N[C@H](C(=O)N[C@H](C(=O)N[C@@H](CC(=O)O)C(=O)O)[C@@H](C)O)[C@@H](C)CC)[C@@H](C)O)[C@@H](C)CC", "note": "[TDG]", "values": [{"measurement": "PV FD4 levels", "setting": "rat small intestine; LPS 6 hr model, TDG 50 μg/kg ip 3 hr after LPS", "value": "reduced"}, {"measurement": "PV FD4 levels", "setting": "rat small intestine; LPS 6 hr model, TDG 50 μg/kg iv 6 hr after LPS (t=0 min)", "value": "reduced"}, {"measurement": "arterial FD4 levels", "setting": "rat small intestine; LPS 24 hr model, TDG 0 hr after LPS", "value": "no significant effect"}, {"measurement": "PV FD4 levels", "setting": "rat small intestine; LPS 24 hr model, TDG 50 μg/kg ip 0 hr after LPS", "value": "little effect"}, {"measurement": "PV FD4 levels", "setting": "rat small intestine; LPS 24 hr model, TDG 50 μg/kg ip 6 hr after LPS", "value": "reduced"}, {"measurement": "PV FD4 levels", "setting": "rat small intestine; LPS 24 hr model, TDG 50 μg/kg ip 12 hr after LPS", "value": "reduced"}, {"measurement": "PV FD4 levels", "setting": "rat small intestine; LPS 24 hr model, TDG 50 μg/kg iv 24 hr after LPS", "value": "little effect"}, {"measurement": "arterial FD4 levels", "setting": "rat small intestine; LPS 24 hr model, TDG 6 hr after LPS", "value": "inhibited"}, {"measurement": "arterial FD4 levels", "setting": "rat small intestine; LPS 24 hr model, TDG 12 hr after LPS", "value": "inhibited"}, {"measurement": "arterial FD4 levels", "setting": "rat small intestine; LPS 24 hr model, TDG 24 hr after LPS", "value": "no significant effect"}]}
{"compound": "[Ac-His^1, D-Phe^2, Lys^15, Arg^16, Leu^27]-VIP(1-7)-GRF(8-27) (HFDAVFTNSYRKVLKRLSARKLLQDIL; HELM PEPTIDE1{[ac].H.[dF].D.A.V.F.T.N.S.Y.R.K.V.L.K.R.L.S.A.R.K.L.L.Q.D.I.L.[am]}$$$$V2.0; SMILES CC[C@H](C)[C@H](NC(=O)[C@H](CC(=O)O)NC(=O)[C@H](CCC(N)=O)NC(=O)[C@H](CC(C)C)NC(=O)[C@H](CC(C)C)NC(=O)[C@H](CCCCN)NC(=O)[C@H](CCCNC(=N)N)NC(=O)[C@H](C)NC(=O)[C@H](CO)NC(=O)[C@H](CC(C)C)NC(=O)[C@H](CCCNC(=N)N)NC(=O)[C@H](CCCCN)NC(=O)[C@H](CC(C)C)NC(=O)[C@@H](NC(=O)[C@H](CCCCN)NC(=O)[C@H](CCCNC(=N)N)NC(=O)[C@H](Cc1ccc(O)cc1)NC(=O)[C@H](CO)NC(=O)[C@H](CC(N)=O)NC(=O)[C@@H](NC(=O)[C@H](Cc1ccccc1)NC(=O)[C@@H](NC(=O)[C@H](C)NC(=O)[C@H](CC(=O)O)NC(=O)[C@@H](Cc1ccccc1)NC(=O)[C@H](Cc1c[nH]cn1)NC(C)=O)C(C)C)[C@@H](C)O)C(C)C)C(=O)N[C@@H](CC(C)C)C(N)=O) [PG97-269]", "values": [{"measurement": "TDG-induced inhibitory effect on PV FD4 levels", "setting": "rat small intestine", "value": "reversed"}, {"measurement": "Arterial FD4 levels in LPS 6 hr + TDG 6 hr rats", "setting": "rat small intestine", "value": "reduced"}]}
{"compound": "methyl-β-cyclodextrin [MβCD]", "values": [{"measurement": "LPS m-to-s transport during OA/TCA exposure by TLR4 reporter cell assay", "setting": "rat jejunal mucosa", "value": "abolished"}]}
